A word on the melting point: it is the temperature, or range, at which the solid turns liquid.

Bounds are passed on as bounds.

Take `CCOC(=O)CC(=O)c1cc(F)c(F)c(OC)c1F`: the melting point lay within 42 to 44 °C.

In the case of `CC1(C)CCC(C)(C)c2cc(-c3cc(-c4ccc(C(=O)O)cc4)ccc3OCCN3CCOCC3)ccc21`, the melting point is 270 to 272 °C.

With `CC(C)CCNC(=O)c1ccccc1-c1ccccc1CNS(=O)(=O)c1cccc(F)c1`, the melting point is 141 °C.

In the case of `COc1ccc(C)cc1NC(=O)Nc1ccc(N2CCC(C(=O)Nc3ncccc3C)CC2)cc1`, the melting point was in the range of 200 to 203 °C.

In turn, `O=S(=O)(c1ccc(O)cc1)N1c2ccc(Br)cc2-c2ccccc2C1c1ccccc1` (stereo unspecified) registered a melting point of 262 to 265 °C.

Molecule `O=c1oc(-c2ccccc2)cc(O)c1SCC1CCCCC1` yielded a melting point of 141 to 143 °C.

`N#Cc1ccc(CN2C(=O)C3CCCC3N(C(=O)CN3C(=O)c4ccccc4C3=O)c3ccccc32)cc1` (stereo unspecified): the melting point lay within 222 to 224 °C.

Take `O=[N+]([O-])c1cc2cc(Cl)ccc2nc1Cl`: the melting point worked out at 190 °C.

`CCn1nc(-c2ccc(OC)cc2)cc(C(=O)NC)c1=O` registered a melting point of 122 to 123 °C.

Take `c1cc2cc([C@@H]3CO3)ccc2s1`: the melting point fell in the range of 72 to 76 °C.

As to `CCCCc1nc(Cl)c(C=O)n1Cc1ccc2oc(-c3ccccc3C#N)c(OC)c2c1`, the melting point is 118 to 120 °C.

`OCc1cccc(-c2ccc3nc(-c4coc5ccccc45)cn3c2)c1` had a melting point of 150 to 152 °C.

Turning to `CP(C)(=O)C(O)C(=O)O` (stereo unspecified), the melting point fell in the range of 206 to 208 °C.

With `Cc1[nH]cc2c(=O)n(-c3ccc(Cl)cc3)nc-2c1-c1ccc(-c2cccnc2)cc1`, the melting point lay in the range of 308 to 309 °C.

Consider `CSC(=O)C(C)(C)NC(=O)c1cc2c(n(CC3CCCCC3)c1=O)CCCCCC2`, for which the melting point is 196 to 198 °C.

The molecule `CCOC1=C(C(=O)O)CN(C2CCCCC2)C1=O` registered a melting point of 154 to 155 °C.

`Cc1ccc(-c2coc3cc(O)c(O)cc3c2=O)cc1` returned a melting point of 280 °C.

Turning to `CCOC(=O)c1ncn2c1CN(C)C(=O)c1c(C)cccc1-2`, the melting point fell in the range of 146 to 147 °C.

As for `COc1cc(-c2ccccc2)c(C=O)cc1CC(=O)O`, the melting point lay within 174 to 175 °C.

Regarding `CCCCCCOc1cc2c(cc1/C(C)=C/C=C/C(C)=C/C(=O)O)C(C)(C)CCCS2(=O)=O`, the melting point is 164 to 165 °C.

With `CCOc1nc2cccc(C(=O)OC)c2n1Cc1ccc(-c2ccccc2C(N)=O)cc1`, the melting point fell in the range of 198 to 199 °C.

As to `CC(=O)OCc1nc2nccnc2c(=O)[nH]1`, the melting point fell in the range of 210 to 212 °C.

Consider `CC(C)(C)OC(=O)NCC(=O)NCc1ccc(Nc2n[nH]c3ncnc(Nc4cccc(Cl)c4)c23)cc1`, for which the melting point was 205 °C.

`CSc1ncc(-c2ccccc2)c(=O)[nH]1` came in with a melting point of 252 to 254 °C.

With `Cc1c(C)c2c(c(C)c1Nc1ccccc1)CC(C)(C)O2`, the melting point lay in the range of 148 to 150 °C.

In turn, `O=C1C(=O)N(C2CCCCC2)C(=O)N1c1ccccc1` registered a melting point of 133 to 140 °C.

As for `COc1ccccc1OC(CCN)c1ccccc1` (stereo unspecified), the melting point fell in the range of 118 to 121 °C.

`COc1ccc(C(Cl)C(C)(C)[N+](=O)[O-])cc1OC` (stereo unspecified) yielded a melting point of 109 to 110 °C.

The molecule `O=C(O)c1cn(C2CC2)c2c(Cl)c(N3CC4CCCC3CN4)c(F)cc2c1=O` (stereo unspecified) registered a melting point of 217 to 220 °C.

Take `COCOCc1nc(N)c2nccnc2n1`: the melting point fell in the range of 129 to 131 °C.

As for `O=C(C=C(C(=O)O)c1csc(NC(=O)OCc2ccccc2)n1)OCc1ccccc1`, the melting point lay within 144 to 146 °C.

As for `CC1(C)CC(N2CCCCCC2=O)CC(C)(C)N1`, the melting point fell in the range of 113 to 117 °C.

`Cc1ccc(S(=O)(=O)OCCCc2c[nH]c3ccc(F)cc23)cc1` returned a melting point of 74 °C.

Molecule `C#CCCCCCCCCCCCCCCCCCCCCO` came in with a melting point of 64 to 70 °C.

Take `O=C1c2ccc(Cl)cc2C(O)N1c1ccc2ccc(Cl)nc2n1` (stereo unspecified): the melting point is 220 to 230 °C.

Regarding `Cc1nc2c(OCc3ccccc3Cl)nccc2n1C`, the melting point fell in the range of 180 to 181 °C.

`CC(C(=O)NCCN(C)C)c1cccc(C(=O)c2cc3ccsc3s2)c1` (stereo unspecified) came in with a melting point of 160 °C.

`C[Si](C)(C)c1ccc(NC(=O)CCCC=C(F)F)cc1` yielded a melting point of 50 to 51 °C.

`CS(=O)c1ccccc1C1CCCC2(C1)C(=O)Nc1ccccc12` (stereo unspecified) displayed a melting point of 190 to 191 °C.

The molecule `O=C(NC1CCc2ccccc2C(CCCc2ccccc2)C1=O)OCc1ccccc1` (stereo unspecified) gave a melting point of 106 to 108 °C.

Regarding `CCNc1nc2ccccc2s1`, the melting point was found to be 93 °C.

For `CCc1c2c(nn1-c1ccccc1)c(=O)[nH]c1ccccc12`, the melting point lay within 331 to 334 °C.

`CCCCn1ncc(/C=C(\Cc2cc3c(cc2OC)OCO3)C(=O)O)c1-c1cc(Cl)c(C)cc1OCc1ccccc1C(=O)O` registered a melting point of 114 to 116 °C.

Take `Cc1c(OC(F)F)ccnc1CSc1nc2ccccc2[nH]1`: the melting point was 99 to 100 °C.

On to `CCNc1nc(NCc2ccc(NC(=O)C3CCN(Cc4ccccc4)CC3)cc2)c2ccc(C)cc2n1`, for which the melting point came out at 55 °C.

In turn, `CC(C)(C)NC(=O)C1CCC2C3CNC4=CC(=O)CCC4(C)C3CCC12C` (stereo unspecified) displayed a melting point of 186 to 189 °C.

The molecule `CCC(=CC(CNC(=O)c1sc(C)nc1C)=NO)C(C)[N+](=O)[O-]` (stereo unspecified) showed a melting point of 158 to 159 °C.

The molecule `Fc1ccc(-c2cc(N3CCN(c4ccc(F)cc4)CC3)nc3c2CCCCCC3)cc1` came in with a melting point of 130 to 131 °C.

`O=C1O[C@@H](Cn2ccnn2)CN1c1ccc(-c2ccc(C(O)C3CC3)nc2)c(F)c1` (stereo partly specified) came in with a melting point of 160 to 163 °C.

Turning to `Nc1ncc(C2CCN(c3ccc([N+](=O)[O-])cc3)CC2)c(N)n1`, the melting point is over 250 °C.

The molecule `Cc1c(C(=O)O)ccc(Oc2cccnc2)c1S(C)(=O)=O` returned a melting point of 214 to 216 °C.

In turn, `COc1ccc2c(c1)OC1(O)c3ccccc3C(=O)C21O` (stereo unspecified) gave a melting point of 98 to 100 °C.

In turn, `CC1=CC(NC(=O)OC(C)(C)C)C(C(=O)O)CC1` (stereo unspecified) came in with a melting point of 132 to 136 °C.

As to `Oc1ccc(C(=S)N2CCOCC2)cc1`, the melting point is 205 °C.

In turn, `CCOC(=O)N1CCN(C(=O)Cn2sc3ccccc3c2=O)CC1` returned a melting point of 158 to 160 °C.

In turn, `O=C1OCCC12Sc1cc(Cl)ccc1C2=O` (stereo unspecified) registered a melting point of 157 to 158 °C.

For the molecule `CC(=O)NC1COc2c(C)ccc(N)c2C1=O` (stereo unspecified), the melting point lay in the range of 178 to 180 °C.

Consider `CC(C)(C)NS(=O)(=O)c1c(C(F)F)nsc1OCC(F)(F)F`, for which the melting point was in the range of 105 to 106 °C.

`O=C1N[C@H](Cc2ccc(Oc3ccccc3)cc2)[C@H](c2ccc(F)cc2)O1` (racemic) yielded a melting point of 144 to 145 °C.

Consider `CC(=O)Nc1cnc(-c2ccc(CC(C)N3CC(c4cccc(Cl)c4)OC3=O)cc2)o1` (stereo unspecified), for which the melting point was in the range of 78 to 88 °C.

In turn, `CC(C)(C)OC(=O)N1OC2C=CC1C2` (stereo unspecified) displayed a melting point of 52 to 53 °C.

In turn, `Cc1nn(C)c(C)c1S(=O)(=O)n1c(CCCC(=O)O)cc2cc(Cl)ccc21` showed a melting point of 142 to 145 °C.

Molecule `CN1C(=O)[C@H](NC(=O)/C=C/c2ccc(Cl)cc2Cl)N=C(c2ccccc2)c2ccccc21` returned a melting point of 137 to 139 °C.

`O=C(OCC(CO)(CO)COC(=O)c1ccccc1)c1ccccc1` came in with a melting point of 104 to 105 °C.

The molecule `COc1ncc(CN2C(=O)C3(COc4cc5c(cc43)CCO5)c3ccccc32)cn1` (stereo unspecified) yielded a melting point of 203 to 204 °C.

The molecule `CCCCN(CCCC)C(=O)On1c(-c2ccccc2)nc2c3ccc4ccccc4c3ccc21` yielded a melting point of 120 °C.

Regarding `COc1ccccc1NC(=O)NCc1cccc2c1C(=O)N(C1CCC(=O)NC1=O)C2=O` (stereo unspecified), the melting point is 214 to 216 °C.

Regarding `COc1ccc2c(c1C)OC(C(=O)O)C2` (stereo unspecified), the melting point lay within 142 to 143 °C.

The molecule `CCC1=CC(C)(C)Oc2c(OC)cc(Cc3cnc(N)nc3N)cc21` had a melting point of 256 to 257 °C.

For the molecule `O=C(O)Cc1csc(NC(=O)C(F)(F)F)n1`, the melting point fell in the range of 117 to 120 °C.

The molecule `CCOC(=O)NNc1ccnc2c(NC(=O)c3c(Cl)cccc3Cl)cccc12` had a melting point of 151 to 155 °C.

On to `O=C(N[C@H](Cc1ccc(F)cc1)[C@@H](O)c1ccc(C(F)(F)F)cc1)c1ccc(F)c2ccccc12` (racemic), for which the melting point fell in the range of 235 to 236 °C.

For the molecule `CCOC(=O)COc1ccc2cc(Br)ccc2c1Br`, the melting point lay within 104 to 106 °C.

Take `O=C1c2ccc(O)cc2CCC1Cc1ccccc1` (stereo unspecified): the melting point fell in the range of 160 to 162 °C.

For the molecule `CCC(=O)Nc1c([N+](=O)[O-])cnn1-c1nc(Cl)c(C(F)(F)F)cc1Cl`, the melting point is 148 to 154 °C.

As for `NCCCCNC(=O)N1c2ccccc2C=Cc2ccccc21`, the melting point was in the range of 114 to 116 °C.

For `Cc1cc(S(=O)(=O)Cl)c(C)c(S(=O)(=O)Cl)c1`, the melting point lay within 24 to 27 °C.

Take `COc1ccc(C2(CCC(=O)O)SCCCS2)cc1OC`: the melting point lay within 134 to 135 °C.

For the molecule `O=C(CCNCC(O)COc1cccc2occc12)NCc1ccccc1` (stereo unspecified), the melting point was in the range of 109 to 110 °C.

Take `OCCOc1ccc2c(c1)oc1cc(Cl)ccc12`: the melting point lay in the range of 118 to 120 °C.

On to `ClCCC1(CCCl)c2ccccc2Sc2ccccc21`, for which the melting point fell in the range of 61 to 62 °C.

In the case of `Cn1ncc(C(=O)O)c1C(=O)Nc1ccn2nc(-c3cccnc3)nc2c1`, the melting point is over 250 °C.

`CC(=O)NCCCc1c[nH]c(-c2ccc(F)cc2)c1-c1ccncc1` yielded a melting point of 218 to 220 °C.

Molecule `COc1ccc(CNC2(Cc3ccccc3)CCC(=O)CC2)cc1` returned a melting point of 122 to 124 °C.

Molecule `Cc1nc(N2CCN(C(=O)c3ccc(F)cc3)C2=O)sc1C(=O)NCc1ccccc1` displayed a melting point of 130 to 132 °C.

Molecule `O=C1c2ccc(CCCCc3ccccc3)cc2CCN1OC1CCCCO1` (stereo unspecified) yielded a melting point of 62 to 64 °C.

The molecule `CNC(=O)Cc1ccc2ccn(C3CCN(CCc4ccccc4F)CC3)c2c1` gave a melting point of 136 to 137 °C.

Take `Cc1ccc2c(c1C)OC(C(=O)O)C2` (stereo unspecified): the melting point was 182 °C.

Turning to `N#Cc1c(F)ccc(O)c1F`, the melting point was 119 to 121 °C.

Regarding `Clc1ccc(-c2cc(C3CCN(Cc4ccccc4Cl)CC3)n[nH]2)cc1`, the melting point was 137 to 139 °C.

For `O=C(c1sc2c(ccc(=O)n2-c2ccccc2)c1Br)N1CC(OC2CCCCO2)C1` (stereo unspecified), the melting point came to 162 °C.
